# From PubChem BioAssay (NCI)
#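 The compound was tested at five concentrations on cells cultured in 96-well plates, with a 48-hour exposure period. GI50 is the concentration that inhibits growth by half. TGI denotes the concentration required for complete inhibition of growth.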
# Assays:
# Assay in all cases: NCI-60 cell line screen, 48 h
# M14 melanoma = test system: M14 melanoma
# IGROV1 ovarian = test system: IGROV1 ovarian
# SK-MEL-28 melanoma = test system: SK-MEL-28 melanoma
# SF-295 CNS = test system: SF-295 CNS
# 786-0 renal = test system: 786-0 renal
# OVCAR-4 ovarian = test system: OVCAR-4 ovarian
# HCT-15 colon = test system: HCT-15 colon
# HCT-116 colon = test system: HCT-116 colon
# SF-268 CNS = test system: SF-268 CNS
# UACC-62 melanoma = test system: UACC-62 melanoma
# CAKI-1 renal = test system: CAKI-1 renal
# MALME-3M melanoma = test system: MALME-3M melanoma
# MDA-MB-231 breast = test system: MDA-MB-231 breast
# SNB-75 CNS = test system: SNB-75 CNS
# CCRF-CEM leukemia = test system: CCRF-CEM leukemia
# NCI-H226 lung = test system: NCI-H226 lung
# ACHN renal = test system: ACHN renal
# HT29 colon = test system: HT29 colon
# RPMI-8226 leukemia = test system: RPMI-8226 leukemia
# A498 renal = test system: A498 renal
# HL-60(TB) leukemia = test system: HL-60(TB) leukemia
# T-47D breast = test system: T-47D breast
# RXF 393 renal = test system: RXF 393 renal
# U251 CNS = test system: U251 CNS
# HS 578T breast = test system: HS 578T breast
# OVCAR-5 ovarian = test system: OVCAR-5 ovarian
# MCF7 breast = test system: MCF7 breast
# NCI-H23 lung = test system: NCI-H23 lung
# SR leukemia = test system: SR leukemia
# OVCAR-8 ovarian = test system: OVCAR-8 ovarian
# UACC-257 melanoma = test system: UACC-257 melanoma
# SK-MEL-5 melanoma = test system: SK-MEL-5 melanoma
# HCC-2998 colon = test system: HCC-2998 colon
# HOP-92 NSCLC = test system: HOP-92 NSCLC
# SK-MEL-2 melanoma = test system: SK-MEL-2 melanoma
# DU-145 prostate = test system: DU-145 prostate
# NCI/ADR-RES ovarian = test system: NCI/ADR-RES ovarian
# NCI-H460 lung = test system: NCI-H460 lung
# SN12C renal = test system: SN12C renal
# BT-549 breast = test system: BT-549 breast
# K-562 leukemia = test system: K-562 leukemia
# KM12 colon = test system: KM12 colon
# SNB-19 CNS = test system: SNB-19 CNS
# UO-31 renal = test system: UO-31 renal
# SK-OV-3 ovarian = test system: SK-OV-3 ovarian
# NCI-H522 lung = test system: NCI-H522 lung
# PC-3 prostate = test system: PC-3 prostate
# COLO 205 colon = test system: COLO 205 colon
# SW-620 colon = test system: SW-620 colon
# A549 NSCLC = test system: A549 NSCLC
# SF-539 CNS = test system: SF-539 CNS
# OVCAR-3 ovarian = test system: OVCAR-3 ovarian
# HOP-62 NSCLC = test system: HOP-62 NSCLC
# MDA-MB-435 = test system: MDA-MB-435
# LOX IMVI melanoma = test system: LOX IMVI melanoma
# TK-10 renal = test system: TK-10 renal
# EKVX NSCLC = test system: EKVX NSCLC
# MOLT-4 leukemia = test system: MOLT-4 leukemia
structure (smiles),measurement,setting,value
Cn1ccc(C(=O)NCCN(CCNC(=O)c2ccn(C)c(=O)c2O)CCNC(=O)c2cccc(=O)n2O)c(O)c1=O,TGI,M14 melanoma,> 100 µM
same,TGI,IGROV1 ovarian,> 100 µM
same,TGI,SK-MEL-28 melanoma,> 100 µM
same,TGI,SF-295 CNS,> 100 µM
same,TGI,786-0 renal,> 100 µM
same,TGI,OVCAR-4 ovarian,> 100 µM
same,TGI,HCT-15 colon,> 100 µM
same,TGI,HCT-116 colon,> 100 µM
same,TGI,SF-268 CNS,> 100 µM
same,TGI,UACC-62 melanoma,> 100 µM
same,TGI,CAKI-1 renal,> 100 µM
same,TGI,MALME-3M melanoma,> 100 µM
same,TGI,MDA-MB-231 breast,> 100 µM
same,TGI,SNB-75 CNS,> 100 µM
same,TGI,CCRF-CEM leukemia,> 100 µM
same,TGI,NCI-H226 lung,> 100 µM
same,TGI,ACHN renal,> 100 µM
same,TGI,HT29 colon,> 100 µM
same,TGI,RPMI-8226 leukemia,> 100 µM
same,TGI,A498 renal,> 100 µM
same,TGI,HL-60(TB) leukemia,> 100 µM
same,TGI,T-47D breast,> 100 µM
same,TGI,RXF 393 renal,> 100 µM
same,TGI,U251 CNS,> 100 µM
same,TGI,HS 578T breast,> 100 µM
same,TGI,OVCAR-5 ovarian,> 100 µM
same,TGI,MCF7 breast,> 100 µM
same,TGI,NCI-H23 lung,> 100 µM
same,TGI,SR leukemia,> 100 µM
same,TGI,OVCAR-8 ovarian,> 100 µM
same,TGI,UACC-257 melanoma,> 100 µM
same,TGI,SK-MEL-5 melanoma,> 100 µM
same,TGI,HCC-2998 colon,> 100 µM
same,TGI,HOP-92 NSCLC,> 100 µM
same,TGI,SK-MEL-2 melanoma,> 100 µM
same,TGI,DU-145 prostate,> 100 µM
same,TGI,NCI/ADR-RES ovarian,> 100 µM
same,TGI,NCI-H460 lung,> 100 µM
same,TGI,SN12C renal,> 100 µM
same,TGI,BT-549 breast,> 100 µM
same,TGI,K-562 leukemia,> 100 µM
same,TGI,KM12 colon,> 100 µM
same,TGI,SNB-19 CNS,> 100 µM
same,TGI,UO-31 renal,> 100 µM
same,TGI,SK-OV-3 ovarian,> 100 µM
same,TGI,NCI-H522 lung,> 100 µM
same,TGI,PC-3 prostate,> 100 µM
same,TGI,COLO 205 colon,> 100 µM
same,TGI,SW-620 colon,> 100 µM
same,TGI,A549 NSCLC,> 100 µM
same,TGI,SF-539 CNS,> 100 µM
same,TGI,OVCAR-3 ovarian,> 100 µM
same,TGI,HOP-62 NSCLC,> 100 µM
same,TGI,MDA-MB-435,> 100 µM
same,TGI,LOX IMVI melanoma,> 100 µM
COc1cc(-n2cc(-c3ccc(F)cc3)[nH]c2=O)cc(OC)c1OC,GI50,IGROV1 ovarian,> 100 µM
same,TGI,IGROV1 ovarian,> 100 µM
same,GI50,SK-MEL-28 melanoma,> 100 µM
same,TGI,SK-MEL-28 melanoma,> 100 µM
same,GI50,SF-295 CNS,> 100 µM
same,TGI,SF-295 CNS,> 100 µM
same,GI50,786-0 renal,> 100 µM
same,TGI,786-0 renal,> 100 µM
same,GI50,OVCAR-4 ovarian,> 100 µM
same,TGI,OVCAR-4 ovarian,> 100 µM
same,GI50,HCT-15 colon,> 100 µM
same,TGI,HCT-15 colon,> 100 µM
same,GI50,HCT-116 colon,> 100 µM
same,TGI,HCT-116 colon,> 100 µM
same,GI50,SF-268 CNS,> 100 µM
same,TGI,SF-268 CNS,> 100 µM
same,GI50,UACC-62 melanoma,> 100 µM
same,TGI,UACC-62 melanoma,> 100 µM
same,GI50,CAKI-1 renal,> 100 µM
same,TGI,CAKI-1 renal,> 100 µM
same,GI50,MALME-3M melanoma,> 100 µM
same,TGI,MALME-3M melanoma,> 100 µM
same,GI50,MDA-MB-231 breast,49.5 µM
same,TGI,MDA-MB-231 breast,> 100 µM
same,GI50,TK-10 renal,> 100 µM
same,TGI,TK-10 renal,> 100 µM
same,GI50,SNB-75 CNS,31.5 µM
same,TGI,SNB-75 CNS,86.3 µM
same,GI50,EKVX NSCLC,> 100 µM
same,TGI,EKVX NSCLC,> 100 µM
same,GI50,NCI-H226 lung,> 100 µM
same,TGI,NCI-H226 lung,> 100 µM
same,GI50,ACHN renal,> 100 µM
same,TGI,ACHN renal,> 100 µM
same,GI50,HT29 colon,> 100 µM
same,TGI,HT29 colon,> 100 µM
same,GI50,RPMI-8226 leukemia,> 100 µM
same,TGI,RPMI-8226 leukemia,> 100 µM
same,GI50,HL-60(TB) leukemia,> 100 µM
same,TGI,HL-60(TB) leukemia,> 100 µM
same,GI50,T-47D breast,> 100 µM
same,TGI,T-47D breast,> 100 µM
same,GI50,RXF 393 renal,> 100 µM
same,TGI,RXF 393 renal,> 100 µM
same,GI50,U251 CNS,71.6 µM
same,TGI,U251 CNS,> 100 µM
same,GI50,HS 578T breast,69.3 µM
same,TGI,HS 578T breast,> 100 µM
same,GI50,OVCAR-5 ovarian,> 100 µM
same,TGI,OVCAR-5 ovarian,> 100 µM
same,GI50,MCF7 breast,> 100 µM
same,TGI,MCF7 breast,> 100 µM
same,GI50,NCI-H23 lung,> 100 µM
same,TGI,NCI-H23 lung,> 100 µM
same,GI50,OVCAR-8 ovarian,> 100 µM
same,TGI,OVCAR-8 ovarian,> 100 µM
same,GI50,UACC-257 melanoma,> 100 µM
same,TGI,UACC-257 melanoma,> 100 µM
same,GI50,SK-MEL-5 melanoma,> 100 µM
same,TGI,SK-MEL-5 melanoma,> 100 µM
same,GI50,HCC-2998 colon,> 100 µM
same,TGI,HCC-2998 colon,> 100 µM
same,GI50,HOP-92 NSCLC,> 100 µM
same,TGI,HOP-92 NSCLC,> 100 µM
same,GI50,SK-MEL-2 melanoma,> 100 µM
same,TGI,SK-MEL-2 melanoma,> 100 µM
same,GI50,DU-145 prostate,> 100 µM
same,TGI,DU-145 prostate,> 100 µM
same,GI50,MOLT-4 leukemia,> 100 µM
same,TGI,MOLT-4 leukemia,> 100 µM
same,GI50,NCI/ADR-RES ovarian,> 100 µM
same,TGI,NCI/ADR-RES ovarian,> 100 µM
same,GI50,NCI-H460 lung,> 100 µM
same,TGI,NCI-H460 lung,> 100 µM
same,GI50,SN12C renal,> 100 µM
same,TGI,SN12C renal,> 100 µM
same,GI50,BT-549 breast,83.4 µM
same,TGI,BT-549 breast,> 100 µM
same,GI50,K-562 leukemia,> 100 µM
same,TGI,K-562 leukemia,> 100 µM
same,GI50,KM12 colon,> 100 µM
same,TGI,KM12 colon,> 100 µM
same,GI50,SNB-19 CNS,> 100 µM
same,TGI,SNB-19 CNS,> 100 µM
same,GI50,UO-31 renal,> 100 µM
same,TGI,UO-31 renal,> 100 µM
same,GI50,SK-OV-3 ovarian,> 100 µM
same,TGI,SK-OV-3 ovarian,> 100 µM
same,GI50,NCI-H522 lung,> 100 µM
same,TGI,NCI-H522 lung,> 100 µM
same,GI50,PC-3 prostate,> 100 µM
same,TGI,PC-3 prostate,> 100 µM
same,GI50,COLO 205 colon,> 100 µM
same,TGI,COLO 205 colon,> 100 µM
same,GI50,SW-620 colon,> 100 µM
same,TGI,SW-620 colon,> 100 µM
same,GI50,A549 NSCLC,> 100 µM
same,TGI,A549 NSCLC,> 100 µM
same,GI50,SF-539 CNS,> 100 µM
same,TGI,SF-539 CNS,> 100 µM
same,GI50,OVCAR-3 ovarian,> 100 µM
same,TGI,OVCAR-3 ovarian,> 100 µM
same,GI50,HOP-62 NSCLC,> 100 µM
same,TGI,HOP-62 NSCLC,> 100 µM
same,GI50,MDA-MB-435,> 100 µM
same,TGI,MDA-MB-435,> 100 µM
same,GI50,LOX IMVI melanoma,> 100 µM
same,TGI,LOX IMVI melanoma,> 100 µM
